Assay: equilibrium dialysis test (slow release of minoxidil ion through a dialysis membrane)
Assay type: physicochemical
Conditions: 10 ml solution containing 0.45 mmoles, pH 4.4, equilibrated through a dialytic barrier with 130 ml of water at pH 4.4
Source text: A direct experimental evidence of the slow-release mechanism, characterizing the minoxidil-polyanion salts, is obtained by dialysis equilibrium tests, as shown in the enclosed Figure. […] If the dialysis solution is substituted, the equilibrium is recovered after dissociation of a further amount of salt. This process mimicks "in vitro" the drug's slow release action at the skin level, characterized by a constant and uniform absorption of the active principle, whose availability in time is provided by the continuous dissociation of the salt.
When the equilibrium conditions are reached at the points marked by the arrows, the equilibrium solution is removed, substituting it with 130 ml of water, till reestablishment of the new equilibrium conditions.

minoxidil found outside the dialysis membrane at equilibrium: about 90%
SMILES: Cl.Nc1cc(N2CCCCC2)nc(N)[n+]1[O-] [minoxidil chloride]
